Our source for the IC50 and EC50 values is patent US9115151B2, “Substituted 2,10-dihydro-9-oxa-1,2,4A-triazaphenanthren-3-ones and uses thereof” (AbbVie Inc., priority 2012, dated 2015).

Structures can show the parent of a compound that is named as a salt. Where only a bound is given, the exact number is not on record here.

For one assay, the target named is T1, PKCθ (Homo sapiens, UniProt Q04759).
T1 construct: His6; purchased Millipore; host or cells: baculovirus in Sf21 cells
Kind of assay: In vitro enzyme assay (time-resolved fluorescence kinase assay), PKCθ, 100 μM ATP. It is filed as biochemical. The procedure:
(§1) PKC kinase activity was assayed by time-resolved fluorescence in vitro kinase assay. Unless otherwise indicated, all reagents used for enzyme assays were obtained from Sigma. Specifically, 5 μL N- or C-terminal His6-tagged, recombinant, human PKC, expressed by baculovirus in Sf21 cells (Millipore) was mixed with 5 μL inhibitor (various concentrations, 5% final DMSO), 5 μL Bio-cdc peptide (Biotin-Ahx-[…], 2 μM final concentration, New England Peptide) and 5 μL of ATP (100 μM or 1000 μM final concentration) in 1× reaction buffer, 20 μL final volume.
(§2) Following a sixty minute incubation at room temperature, the reaction was quenched with 5 μL of 0.5 M EDTA pH 7.5.
(§3) Background counts from a minus enzyme control is subtracted from all data. Data (after background correction) are converted to percent activity by dividing by the signal obtained from PKC without drug sample.

In the next assay the target is T2, PKCα (Homo sapiens, UniProt P17252).
T2 construct: His6; purchased Millipore; host or cells: baculovirus in Sf21 cells
As to the kind of experiment: In vitro enzyme assay (time-resolved fluorescence kinase assay), PKCα, 100 μM ATP. Type of assay: biochemical. As to conditions: 100 μM ATP; read-out: PKCα enzyme IC50. The procedure: as §1, §2, §3

Assay [1] deals with CD3/CD28 induced IL-2 in human T-Blasts. Kind of assay: T-Blasts CD3/CD28 induced IL-2 assay. Type of assay: cell-based. As to conditions: read-out: CD3/CD28-stimulated IL2 in T-blasts EC50. The procedure: T-Blasts CD3/CD28 Induced IL-2 Assay
Human T-Blasts are generated using PHA following standard protocols. T-Blasts are freeze aliquoted and vials thawed as required. […] Seed 2×10^5/100 μL cell suspension per well in flat bottomed 96 well plate. Compound dilutions are prepared from 100% DMSO stocks. A total of 8 serial dilutions are made (1/3 in 100% DMSO). Compounds are diluted 1/50 in growth medium to prepare 4× stocks of each tested concentration. 50 μL from each 4× stock concentration is added to the 100 μL cell suspension and incubated for 30 minutes prior stimulus addition. A 4× stimulus stock is prepared using anti-CD3+anti-CD28 antibodies. Antibody mix is added to the cell/compounds suspension in 50 μL at 5 μg/mL final concentration. Compounds are tested in duplicates. Plates are transferred to 37° C./CO2 incubator for 24 hours. After incubation 130 μL of supernatant is collected for IL-2 determination while MTT toxicity analysis is performed on remaining cells/medium.

T1 sequence (Q04759 whole entry): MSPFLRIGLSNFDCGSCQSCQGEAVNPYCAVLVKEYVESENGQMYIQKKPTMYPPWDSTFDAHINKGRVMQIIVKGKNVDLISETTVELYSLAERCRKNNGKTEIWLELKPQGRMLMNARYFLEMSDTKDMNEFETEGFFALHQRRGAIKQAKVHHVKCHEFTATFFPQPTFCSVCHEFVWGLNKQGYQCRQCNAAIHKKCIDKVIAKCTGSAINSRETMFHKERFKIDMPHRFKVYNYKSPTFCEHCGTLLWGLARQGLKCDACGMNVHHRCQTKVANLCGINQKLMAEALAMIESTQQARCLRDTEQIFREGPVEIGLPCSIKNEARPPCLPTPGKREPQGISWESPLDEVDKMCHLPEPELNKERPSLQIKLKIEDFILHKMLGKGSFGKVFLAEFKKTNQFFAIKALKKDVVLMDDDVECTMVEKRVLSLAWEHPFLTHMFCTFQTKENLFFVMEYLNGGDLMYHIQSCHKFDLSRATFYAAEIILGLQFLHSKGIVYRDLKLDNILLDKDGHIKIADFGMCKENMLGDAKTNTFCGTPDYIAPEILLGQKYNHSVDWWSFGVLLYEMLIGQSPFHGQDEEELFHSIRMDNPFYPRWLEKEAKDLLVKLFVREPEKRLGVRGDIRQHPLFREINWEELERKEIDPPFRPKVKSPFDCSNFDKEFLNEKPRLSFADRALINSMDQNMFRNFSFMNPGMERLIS

For `C[C@@H]1C(=O)NN=C2COc3cc(C(F)(F)F)c([C@@H](C)C4(C)CNC4)cc3N21` (single isomer, unassigned) [Example 147-1, trifluoroacetic acid], the values for the half-inhibitory concentration (IC50) against PKCθ and at PKCα were below 250 nM and 250 to 1000 nM, respectively. Moreover, in assay [1], the EC50 is below 250 nM.
Take `CC(=O)N1CC(C)(n2ccc3cc4c(cc32)N2C(=NNC(=O)[C@H]2C)CO4)C1` [Example 155, (R)-10-(1-Acetyl-3-methyl-azetidin-3-yl)-1-methyl-3,5-dihydro-10H-6-oxa-3,4,10,11b-tetraaza-cyclopenta[b]phenanthren-2-one hydrochloric acid]: the results for the 50% inhibitory concentration (IC50) against PKCθ and at PKCα were below 250 nM and 1000 to 10000 nM, respectively. For the same molecule, the EC50 in assay [1] was in the range of 250 to 1000 nM.
In the same order, the values of `CC(C)c1cc2c(cc1OC1(C)CNC1)N1C(=NNC(=O)C1C)CO2` (stereo not drawn) [Example 82, 7-Isopropyl-4-methyl-6-(3-methyl-azetidin-3-yloxy)-2,10-dihydro-9-oxa-1,2,4a-triaza-phenanthren-3-one trifluoroacetic acid] are below 250 nM, 250 to 1000 nM and below 250 nM.
Turning to `CC(C)N1CC(C)(Nc2cc3c(cc2C2CCOCC2)OCC2=NNC(=O)C(C)N23)C1` (stereo not drawn) [Example 126, 9-((1-Isopropyl-3-methylazetidin-3-yl)amino)-1-methyl-8-(tetrahydro-2H-pyran-4-yl)-3,5-dihydrobenzo[5,6][1,4]oxazino[3,4-c][1,2,4]triazin-2(1H)-one trifluoroacetic acid], the figures for the half-inhibitory concentration (IC50) against PKCθ and on PKCα were below 250 nM and 1000 to 10000 nM, respectively. Moreover, the EC50 in assay [1] lay in the range of 250 to 1000 nM.
With `C[C@@H]1C(=O)NN=C2COc3cc(-c4ccccc4F)c(N(C)C4(C)CN(C(=O)CCN(C)C)C4)cc3N21` [Example 185], the IC50 was below 250 nM at PKCθ and 250 to 1000 nM at PKCα. In addition, the EC50 in assay [1] is below 250 nM.
With `C[C@@H]1C(=O)NN=C2COc3cc(C4=CCC(F)(F)CC4)c(C4CCNCC4)cc3N21` [Example 211], the half-maximal inhibitory concentration (IC50) against PKCθ is below 250 nM; at PKCα, 1000 to 10000 nM. The EC50 in assay [1] fell in the range of 250 to 1000 nM.
For the molecule `C[C@@H]1C(=O)NN=C2COc3cc(-c4ccccc4F)c([C@@H]4CCCNCC4)cc3N21` [Example 218], the results for the concentration for half-maximal inhibition (IC50) against PKCθ and on PKCα were below 250 nM and 1000 to 10000 nM, respectively. The EC50 in assay [1] is 250 to 1000 nM.
`CC1C(=O)NN=C2COc3ccc(C4CCNCC4)cc3N21` (stereo not drawn) [Example 71, 4-Methyl-6-piperidin-4-yl-2,10-dihydro-9-oxa-1,2,4a-triaza-phenanthren-3-one trifluoroacetic acid]: the 50% inhibitory concentration (IC50) at PKCθ is below 250 nM; at PKCα, 1000 to 10000 nM. The EC50 in assay [1] is below 250 nM.
For the molecule `CC(C)c1cc2c(cc1C1CCNCC1)N1C(=NNC(=O)[C@H]1C)CO2` [Example 208], the concentration for half-maximal inhibition (IC50) against PKCθ is below 250 nM; on PKCα it was 1000 to 10000 nM. In addition, the EC50 in assay [1] was below 250 nM.
For the molecule `C[C@@H]1C(=O)NN=C2COc3cc(-c4ccccc4F)c([C@@H](C)C4(C)CN(CC(C)(C)O)C4)cc3N21` [Example 143], the IC50 was below 250 nM at PKCθ and 250 to 1000 nM at PKCα. For the same molecule, the EC50 in assay [1] was below 250 nM.
In the case of `[2H]c1cn(C2(C)CNC2)c2cc3c(cc12)OCC1=NNC(=O)C(C)N13` (stereo not drawn) [Example 149, 8-Deuterated-1-methyl-10-(3-methyl-azetidin-3-yl)-3,5-dihydro-10H-6-oxa-3,4,10,11b-tetraaza-cyclopenta[b]phenanthren-2-one hydrochloride], the 50% inhibitory concentration (IC50) on PKCθ was below 250 nM; at PKCα, 1000 to 10000 nM. The EC50 in assay [1] was below 250 nM.
On to `CC1C(=O)NN=C2COc3cc(-c4ccc5scnc5c4)c(NC4CNC4)cc3N21` (racemic) [Example 37], for which the IC50 against PKCθ was below 250 nM; at PKCα, 1000 to 10000 nM. In assay [1], the EC50 was below 250 nM.
Take `CC1C(=O)NN=C2COc3cc(-c4ccc(C#N)cc4)c(N(C)C4(C)CN(C)C4)cc3N21` (stereo not drawn) [Example 174]: the IC50 at PKCθ is below 250 nM; on PKCα, 1000 to 10000 nM. Also, in assay [1], the EC50 fell in the range of 250 to 1000 nM.
Regarding `Cc1cc2c(cc1NC1CN(C)C1)N1C(=NNC(=O)C1C)CO2` (stereo not drawn) [Example 125, 1,8-Dimethyl-9-((1-methylazetidin-3-yl)amino)-3,5-dihydrobenzo[5,6][1,4]oxazino[3,4-c][1,2,4]triazin-2(1H)-one trifluoroacetic acid], the concentration for half-maximal inhibition (IC50) at PKCθ was below 250 nM; on PKCα it was 1000 to 10000 nM. The EC50 in assay [1] lay in the range of 250 to 1000 nM.
Regarding `CC1C(=O)NN=C2COc3cc(-c4ccc(F)cc4)c(N(C)C4(C)CN(C)C4)cc3N21` (stereo not drawn) [Example 168], the IC50 on PKCθ was below 250 nM; at PKCα, 250 to 1000 nM. Moreover, the EC50 in assay [1] is below 250 nM.
In the case of `CC1C(=O)NN=C2COc3cc(-c4ccc(Cl)cc4)c(NC4CNC4)cc3N21` (racemic) [Example 45], the 50% inhibitory concentration (IC50) against PKCθ is below 250 nM; at PKCα, 1000 to 10000 nM. In addition, in assay [1], the EC50 was below 250 nM.
For `C[C@@H]1C(=O)NN=C2COc3ccc([C@H](C)C4CNC4)cc3N21` [Example 111], the half-inhibitory concentration (IC50) against PKCθ is below 250 nM; on PKCα, 1000 to 10000 nM. In addition, in assay [1], the EC50 was in the range of 250 to 1000 nM.
With `C[C@@H]1C(=O)NN=C2COc3cc(-c4ccccc4F)c(N4C[C@H](C)N(C)C[C@@H]4C)cc3N21` [Example 247], the IC50 on PKCθ and at PKCα was below 250 nM each time. For the same molecule, the EC50 in assay [1] is below 250 nM.
As for `C[C@@H]1C(=O)NN=C2COc3cc(-c4ccccc4F)c(N(C)C4(C)CN(C(=O)CO)C4)cc3N21` [Example 184], the IC50 against PKCθ is below 250 nM; on PKCα, 1000 to 10000 nM. For the same molecule, the EC50 in assay [1] lay within 250 to 1000 nM.
In the case of `CC1C(=O)NN=C2COc3cc(-c4cccc(F)c4)c(N(C)C4(C)CN(C)C4)cc3N21` (stereo not drawn) [Example 169], the concentration for half-maximal inhibition (IC50) at PKCθ was below 250 nM; on PKCα, 250 to 1000 nM. The EC50 in assay [1] is below 250 nM.
Consider `C[C@@H]1C(=O)NN=C2COc3cc(-c4c(Cl)cccc4N4CCNCC4)ccc3N21` [Example 131], for which the IC50 against PKCθ was below 250 nM; at PKCα, 1000 to 10000 nM. For the same molecule, the EC50 in assay [1] fell in the range of 250 to 1000 nM.
In the same order, the values of `CC1C(=O)NN=C2COc3cc(-c4ccccc4Cl)c(NC4CNC4)cc3N21` (racemic) [Example 44] are below 250 nM, 1000 to 10000 nM and below 250 nM.
Consider `CC1C(=O)NN=C2COc3c(cc(NC4CNC4)c(F)c3F)N21` (stereo not drawn) [Example 114, 9-(Azetidin-3-ylamino)-7,8-difluoro-1-methyl-3,5-dihydrobenzo[5,6][1,4]oxazino[3,4-c][1,2,4]triazin-2(1H)-one trifluoroacetic acid], for which the values for the IC50 at PKCθ and at PKCα were below 250 nM and 1000 to 10000 nM, respectively. The EC50 in assay [1] is below 250 nM.
For the molecule `CC1C(=O)NN=C2COc3cc(-c4ccccc4OC(F)(F)F)c(NC4CNC4)cc3N21` (racemic) [Example 27], the IC50 against PKCθ is below 250 nM; on PKCα, 1000 to 10000 nM. In addition, the EC50 in assay [1] is below 250 nM.
Take `C[C@H](O)CN1CC(C)([C@H](C)c2cc3c(cc2-c2ccccc2F)OCC2=NNC(=O)[C@@H](C)N23)C1` [Example 139, (R)-7-(2-Fluoro-phenyl)-6-{(R)-1-[1-((S)-2-hydroxy-propyl)-3-methyl-azetidin-3-yl]-ethyl}-4-methyl-2,10-dihydro-9-oxa-1,2,4a-triaza-phenanthren-3-one hydrochloric acid]: the half-maximal inhibitory concentration (IC50) at PKCθ and at PKCα was below 250 nM in each case. The EC50 in assay [1] is below 250 nM.
For `Cc1cc2c(cc1N1CCC13CCNCC3)N1C(=NNC(=O)C1C)CO2` (stereo not drawn) [Example 115, 1,8-Dimethyl-9-(1,7-diazaspiro[3.5]nonan-1-yl)-3,5-dihydrobenzo[5,6][1,4]oxazino[3,4-c][1,2,4]triazin-2(1H)-one trifluoroacetic acid], the IC50 was below 250 nM against PKCθ and 1000 to 10000 nM on PKCα. Besides, the EC50 in assay [1] was below 250 nM.
On to `CCc1cc2c(cc1NC1CNC1)N1C(=NNC(=O)C1C)CO2` (stereo not drawn) [Example 59], for which the values for the 50% inhibitory concentration (IC50) on PKCθ and on PKCα were below 250 nM and 1000 to 10000 nM, respectively. For the same molecule, the EC50 in assay [1] lay within 250 to 1000 nM.
With `C[C@@H]1C(=O)NN=C2COc3cc(-c4ccccc4F)c(N4CCNCC4)cc3N21` [Example 222, (R)-7-(2-Fluoro-phenyl)-4-methyl-6-piperazin-1-yl-2,10-dihydro-9-oxa-1,2,4a-triaza-phenanthren-3-one], the figures for the 50% inhibitory concentration (IC50) at PKCθ and at PKCα were below 250 nM and 1000 to 10000 nM, respectively. Moreover, the EC50 in assay [1] was 250 to 1000 nM.
On to `CC(C)Cc1cc2c(cc1NC1CNC1)N1C(=NNC(=O)C1C)CO2` (stereo not drawn) [Example 58], for which the IC50 at PKCθ was below 250 nM; at PKCα it was 1000 to 10000 nM. For the same molecule, the EC50 in assay [1] was below 250 nM.

As a reminder, the IC50 is the concentration at which inhibition is half-maximal.
